ChEMBL document CHEMBL4680168, “The development of a novel transforming growth factor-β (TGF-β) inhibitor that disrupts ligand-receptor interactions” (Eur J Med Chem, 2020)
One block for each compound: values may come before it. Calls of active or inactive are those of the source. The rule behind the calls is not given here.

Assays:
[1] = Inhibition of TGFbeta signalling pathway in MLEC preincubated for 30 mins followed by TGF-beta1 addition and measured after 18 hrs by Steady-Glo luciferase assay; design: species or system Neovison vison
[2] = Cytotoxicity against MLEC assessed as reduction in cell viability at 50 uM by MTT assay; conditions: neovison vison
A549 [3] = test: Inhibition of TGFBR1/TGFBR2 protein-protein interaction in human A549 cells assessed as reduction in TGF-beta1-induced fibronectin expression preincubated for 2 hrs followed by TGF-beta1 addition and measured after 4 hrs by Western blot analysis; assay type: cell-based; conditions: filed as antagonist, dose 20-80 µM, time 6.0 hrs
A549 [4] = test: Inhibition of TGFBR1/TGFBR2 protein-protein interaction in human A549 cells assessed as reduction in TGF-beta1-induced cell migration expression at 40 to 80 uM preincubated for 2 hrs followed by TGF-beta1 addition and measured after 24 hrs by scratch-wound healing assay; assay type: cell-based; conditions: filed as antagonist, dose 40-80 µM, time 26.0 hrs
A549 [5] = test: Inhibition of TGFBR1/TGFBR2 protein-protein interaction in human A549 cells assessed as inhibition of TGF-beta1-induced Erk1/Erk2 phosphorylation at 40 uM incubated for 6 hrs by Western blot analysis; assay type: cell-based; conditions: filed as antagonist
A549 [6] = test: Inhibition of TGFBR1/TGFBR2 protein-protein interaction in human A549 cells assessed as inhibition of TGF-beta1-induced Akt phosphorylation at 40 uM preincubated for 2 hrs followed by TGF-beta1-stimulation and measured after 4 hrs by Western blot analysis; assay type: cell-based; conditions: filed as antagonist, time 6.0 hrs
A549 [7] = test: Inhibition of TGFBR1/TGFBR2 protein-protein interaction in human A549 cells assessed as inhibition of TGF-beta1-induced Smad2/Smad3 phosphorylation at 40 uM incubated for 6 hrs by Western blot analysis; assay type: cell-based
A549 [8] = test: Inhibition of TGFBR1/TGFBR2 protein-protein interaction in human A549 cells assessed as reduction in TGF-beta1-induced cell migration expression preincubated for 2 hrs followed by TGF-beta1 addition and measured after 48 hrs by scratch-wound healing assay; assay type: cell-based; conditions: filed as antagonist, dose 20-80 µM, time 50.0 hrs
A549 [9] = test: Inhibition of TGFBR1/TGFBR2 protein-protein interaction in human A549 cells assessed as reduction in TGF-beta1-induced cell migration expression preincubated for 2 hrs followed by TGF-beta1 addition and measured after 24 hrs by crystal violet staining based transwell assay; conditions: filed as antagonist, dose 20-80 µM, time 26.0 hrs
A549 [10] = test: Inhibition of TGFBR1/TGFBR2 protein-protein interaction in human A549 cells assessed as inhibition of TGF-beta1-induced Erk1/Erk2 phosphorylation at 40 uM preincubated for 2 hrs followed by TGF-beta1-stimulation and measured after 4 hrs by Western blot analysis; assay type: cell-based; conditions: filed as antagonist, time 6.0 hrs
[11] = Inhibition of TGFBR1/TGFBR2 protein-protein interaction in MLEC cells assessed as inhibition of TGF-beta1-induced dimer formation preincubated for 30 mins followed by TGF-beta1-stimulation and measured after overnight by pathhunter assay; assay type: cell-based, Neovison vison; conditions: Neogale vison
A549 [12] = test: Inhibition of TGFBR1/TGFBR2 protein-protein interaction in human A549 cells assessed as reduction in TGF-beta1-induced MMP-2 expression preincubated for 2 hrs followed by TGF-beta1 addition and measured after 4 hrs by Western blot analysis; assay type: cell-based; conditions: filed as antagonist, dose 20-80 µM, time 6.0 hrs
A549 [13] = test: Inhibition of TGFBR1/TGFBR2 protein-protein interaction in human A549 cells assessed as inhibition of TGF-beta1-induced Akt phosphorylation at 40 uM incubated for 6 hrs by Western blot analysis; assay type: cell-based; conditions: filed as antagonist
A549 [14] = test: Cytotoxicity against human A549 cells assessed as reduction in cell viability at 20 to 80 uM up to 48 hrs by MTT assay; assay type: cell-based; conditions: a549, 48 h, dose 20-80 µM
A549 [15] = test: Inhibition of TGFBR1/TGFBR2 protein-protein interaction in human A549 cells assessed as inhibition of TGF-beta1-induced Smad2/Smad3 phosphorylation at 40 uM preincubated for 2 hrs followed by TGF-beta1-stimulation and measured after 4 hrs by Western blot analysis; assay type: cell-based; conditions: filed as antagonist, time 6.0 hrs
A549 [16] = test: Inhibition of TGFBR1/TGFBR2 protein-protein interaction in human A549 cells assessed as reduction in TGF-beta1-induced alpha-SMA expression preincubated for 2 hrs followed by TGF-beta1 addition and measured after 4 hrs by Western blot analysis; assay type: cell-based; conditions: filed as antagonist, dose 20-80 µM, time 6.0 hrs

SMILES: CC(=O)c1ccc(NCc2c(C)c(CNc3ccc(C(C)=O)cc3)c(C)c(CNc3ccc(C(C)=O)cc3)c2C)cc1
IC50 ([1]; read-out: IC50): > 50 µM
Activity [2]: Non-Toxic

SMILES: Cc1c(CNc2ccccc2)c(C)c(CNc2ccccc2)c(C)c1CNc1ccccc1
Activity (A549 [3]): Dose-dependent effect
Activity (A549 [4]): Active
Activity (A549 [5]): Active
Activity (A549 [6]): Active
IC50 ([1]; read-out: IC50): 5.3 µM
Activity (A549 [7]): inactive
Activity (A549 [8]): Dose-dependent effect
Activity (A549 [9]): Dose-dependent effect
Activity (A549 [10]): Active
IC50 [11]: 23.6 µM
Activity [2]: Non-Toxic
Activity (A549 [12]): Dose-dependent effect
Activity (A549 [13]): Active
Activity (A549 [14]): Non-Toxic
Activity (A549 [15]): Active
Activity (A549 [16]): Dose-dependent effect

SMILES: COC(=O)c1cccc(CNCc2c(C)c(CNCc3cccc(C(=O)OC)c3)c(C)c(CNCc3cccc(C(=O)OC)c3)c2C)c1
Activity [2]: Toxic

SMILES: c1ccc(CN2COc3c(c4c(c5c3CN(Cc3ccccc3)CO5)CN(Cc3ccccc3)CO4)C2)cc1
IC50 ([1]; read-out: IC50): 18 µM

SMILES: COC(=O)c1ccc(CNCc2c(C)c(CNCc3ccc(C(=O)OC)cc3)c(C)c(CNCc3ccc(C(=O)OC)cc3)c2C)cc1
Activity [2]: Toxic

SMILES: Cc1c(CNCc2ccccc2)c(C)c(CNCc2ccccc2)c(C)c1CNCc1ccccc1
Activity [2]: Toxic

Further lines, with some results ahead:

IC50 ([1]; read-out: IC50): 31.9 µM
SMILES: Cc1c(CNc2cccc(C(N)=O)c2)c(C)c(CNc2cccc(C(N)=O)c2)c(C)c1CNc1cccc(C(N)=O)c1
Activity [2]: Non-Toxic

IC50 [1]: Not Active
SMILES: CC(=O)c1cccc(NCc2c(C)c(CNc3cccc(C(C)=O)c3)c(C)c(CNc3cccc(C(C)=O)c3)c2C)c1
Activity [2]: Non-Toxic

IC50 [1]: Not Active
SMILES: COC(=O)c1ccc(NCc2c(C)c(CNc3ccc(C(=O)OC)cc3)c(C)c(CNc3ccc(C(=O)OC)cc3)c2C)cc1
Activity [2]: Non-Toxic

IC50 ([1]; read-out: IC50): 38.1 µM
SMILES: COC(=O)c1cccc(NCc2c(C)c(CNc3cccc(C(=O)OC)c3)c(C)c(CNc3cccc(C(=O)OC)c3)c2C)c1
Activity [2]: Non-Toxic

IC50 [1]: Not Active
SMILES: Cc1c(CNc2ccc(C(N)=O)cc2)c(C)c(CNc2ccc(C(N)=O)cc2)c(C)c1CNc1ccc(C(N)=O)cc1
Activity [2]: Non-Toxic
